Results on five compounds are retold here after patent publication US20260174672A1, “COMPLEX FOR IMPROVING SKIN CONDITION” (LG H&H CO., LTD., priority 2022, published 2026).

Data set [1] in a line: Zeta-potential analysis by dynamic light scattering (Zetasizer Nano-ZS). Type of data set: physicochemical. Conditions: dispersed in distilled water, triplicate, several peaks printed with their share (%). The protocol:
To analyze the binding characteristics in the complexes of Examples 1 and 2, particle size analysis and zeta-potential analysis were performed. Chondroitin sulfate (CS), arginine (R), and glutamine (Q), a simple mixture of chondroitin sulfate and arginine or glutamine (CS/R or CS/Q mixture), and a complex of chondroitin sulfate and arginine or glutamine (CS-R or CS-Q complex) were analyzed by dynamic light scattering using a Zetasizer Nano-ZS (Malvern Instruments, Worcester, UK) to measure the particle size (effective dynamic diameter), particle size distribution and zeta potential of the samples dispersed on a colloid. Samples for the measurements were prepared by being dispersed in distilled water, and an automatic temperature-controlled cell with a scattering angle of 90° and software provided by the manufacturer were used. After measurement was conducted in triplicate for each sample, a zeta-potential value was calculated, and the results are shown in the following Table 1.

Data set [2] concerns type I collagen (procollagen type 1-C propeptide, PICP) in human fibroblasts. Description: Collagen synthesis effect in vitro (PICP EIA). Particulars: 48 hours, concentrations of Table 2, (sample − negative control) ÷ negative control × 100. It counts as cell-based. From the text:
(§1) For the evaluation of in vitro skin improvement efficacy, chondroitin sulfate (CS), glutamine (Q), arginine (R), Examples 1 and 2 (CS-R complex and CS-Q complex), and Comparative Examples 1 and 2 (CS/R mixture and CS/Q mixture) were used as culture solutions, and were ultimately included at the concentrations shown in the following Table 2 in each evaluation.
To compare the wrinkle amelioration effects of chondroitin sulfate (CS), arginine (R), and glutamine (Q), a simple mixture of chondroitin sulfate and an amino acid (CS/AA mixture), and a chondroitin sulfate-amino acid complex (CS-AA complex), the effect of promoting the synthesis of type I collagen was confirmed using skin fibroblasts. For the evaluation, procollagen type 1-C propeptide (PICP), which is typically synthesized in the highest amount in fibroblasts, was quantified.
Specifically, human fibroblasts were aliquoted at 1×10^5 cells/well in a 48-well culture plate and cultured in a Dulbecco's Modified Eagle's Medium (DMEM, Gibco) medium containing 10% fetal bovine serum (FBS) for 24 hours. Subsequently, the medium was replaced with a serum-free DMEM medium containing 2 wt % of each culture solution according to Table 2 to treat cells with an analyte for 48 hours. Next, 20 μl of the culture supernatant was taken to measure the degree of collagen increase at each concentration at 450 nm using a Procollagen Type-1-C-peptide Enzyme Immuno Assay (PICP EIA) kit.

Another data set relates to human fibroblasts. Description: Cell activity effect in vitro (CCK-8). It counts as cell-based. Particulars: 48 hours, CCK-8, concentrations of Table 2, (sample − negative control) ÷ negative control × 100, in %.
Source text: as §1
To compare the effects of chondroitin sulfate (CS), arginine (R), and glutamine (Q), a simple mixture of chondroitin sulfate and an amino acid (CS/AA mixture), and a chondroitin sulfate-amino acid complex (CS-AA complex) on skin cell activity, human fibroblast culture was used to confirm whether cell activity was increased.
Specifically, human fibroblasts were aliquoted at 5×10^3 cells/well and cultured in a DMEM medium containing 10% FBS for 24 hours. Subsequently, the culture medium was removed, and the cells were treated with each sample at a predetermined concentration according to Table 2 for 48 hours. Then, a reagent provided in a CCK-8 kit (DOJINDO, Cell Counting Kit-8, catalog No. CK04) was added, the resulting mixture was incubated for 4 hours, and then absorbance was measured at 450 nm using an ELISA reader.

For data set [3], the system named is hyaluronic acid production in human dermal fibroblasts. Nature of the data set: Hyaluronic acid synthesis effect in vitro (Hyaluronan ELISA). It counts as cell-based. Particulars: 24 hours, concentrations of Table 2, (sample − negative control) ÷ negative control × 100.
Source text: as §1
To compare the skin moisturizing effects of chondroitin sulfate (CS), arginine (R), and glutamine (Q), a simple mixture of chondroitin sulfate and an amino acid (CS/AA mixture), and a chondroitin sulfate-amino acid complex (CS-AA complex), human dermal fibroblasts were used to confirm whether the production of hyaluronic acid was increased.
Specifically, fibroblasts were cultured in a DMEM medium containing 10% FBS until the cells occupied 80% of the culture dish. Subsequently, the cells were treated with each sample at a predetermined concentration according to Table 2 for 24 hours, and then the concentration of hyaluronic acid was measured using a Hyaluronan ELISA kit (R&D systems, catalog No. DY3614-05).

Data set [4] has as its system Raw 264.7 cells (NO production). Description: Suppression of NO production in LPS-treated macrophages (Griess). It counts as cell-based, mouse. Particulars: Raw264.7 cells, sample 30 minutes then 500 ng/ml LPS 18 hours, concentrations of Table 2.
Source text: as §1
To compare the skin soothing effects of chondroitin sulfate (CS), arginine (R), and glutamine (Q), a simple mixture of chondroitin sulfate and an amino acid (CS/AA mixture), and a chondroitin sulfate-amino acid complex (CS-AA complex), mouse macrophage cell line Raw 264.7 cells (ATCC, catalog No. CRL-2788) was used to confirm whether the production of NO was suppressed.
Specifically, Raw264.7 cells were aliquoted at 1 to 2×10^5 cells/ml in a 24-well tissue culture plate and cultured in a DMEM medium containing 10% FBS for 24 hours. The culture was carried out in a 5% CO2 incubator. Subsequently, the medium was replaced with a serum-free medium, and the cells were starved for 12 hours, and then treated with each sample at a predetermined concentration according to Table 2 for 30 minutes. After the sample treatment was completed, the cells were treated with 500 ng/ml lipopolysaccharides (LPS, SIGMA, catalog No. L43901) and then cultured for an additional 18 hours. Next, the culture supernatant was taken, transferred to a 96-well tissue culture plate and reacted with GREISS reagent (SIGMA, catalog No. G4410) at room temperature for 15 minutes, and then absorbance was measured at 540 nm using an ELISA reader. Thereafter, NO was quantified using the measured absorbance, and the reduction rate of NO produced in the experimental group compared to the positive control treated with 20 μg/ml of L-NMMA was calculated as (the value of the positive control−the value of the sample treatment group)÷the value of the negative control×100, which was used as a NO production suppression ability.
A general note: Nitrite, measured by Griess reagent, commonly stands in for NO production.

The test system of data set [5] is Zonula Occludens-1 (ZO-1) in HaCaT cells. Nature of the data set: mRNA expression of tight junction protein ZO-1 (real-time PCR). It counts as cell-based, human. Conditions: 24 hours, concentrations of Table 2, (sample − negative control) ÷ negative control × 100.
Source text: as §1
To compare the skin barrier recovery effects of chondroitin sulfate (CS), glutamine (Q), a simple mixture of chondroitin sulfate and glutamine (CS/Q mixture), and a chondroitin sulfate-glutamine complex (CS-Q complex), it was confirmed whether the expression of Zonula Occludens-1 (ZO-1), one of the proteins that make up the tight junctions at the intercellular junctions in the skin barrier, was increased.
Specifically, human keratinocyte cell line HaCaT cells were first cultured at 37° C. in a 5% CO2 environment in a DMEM medium (Gibco, Waltham, MA, USA) supplemented with 10% fetal bovine serum (FBS, Gibco, Waltham, MA, USA), […] penicillin, and […] streptomycin. […] The concentration of the extracted RNA was quantified, and 1 μg of RNA was reacted with a cDNA synthesis kit (ET21100, PhileKorea Technology) at 42° C. for 30 minutes and 72° C. for 10 minutes to synthesize cDNA. […]
A general note: Quantitative PCR measures a nucleic acid by following its amplification.

Data set [6] has as its system Staphylococcus epidermidis. Description: Growth rate of beneficial skin bacterium (optical density). Particulars: TSB medium, 30 to 37° C., 6 to 18 hours, concentrations of Table 2; relative to negative control. Type of data set: cell-based. The protocol:
To evaluate the prebiotic ability of Example 2, the degrees of enhancement in beneficial bacteria among the skin resident flora were compared before and after the CS or Example 2 treatment. Staphylococcus epidermidis was selected as a representative beneficial bacterium, and the growth rates of the beneficial bacterium were compared before and after treatment with the materials.
The growth rate of the beneficial bacterium was evaluated by the following method. A sterile liquid medium was prepared using a commercial tryptic soy broth (TSB, DFICO) medium, and a glycerol stock of S. epidermidis was inoculated into the sterile liquid TSB medium and pre-cultured at 30 to 37° C. for 6 to 18 hours. Such a pre-culture was performed once to twice. Thereafter, chondroitin sulfate (CS) and Example 2 were added to a sterile liquid TSB medium at each predetermined concentration according to Table 2, and the preculture solution was inoculated to culture cells at 30 to 37° C. for 6 to 18 hours.
After culture, the optical density (OD) immediately after inoculation and the optical density during the stationary phase of growth were measured, and the ratio of these values (growth rate) was compared. […] After the evaluation was carried out three times, the average growth rate, the standard deviation, and the like were calculated, and then the significance was verified by a t-test.

For `N=C(N)NCCC[C@H](N)C(=O)O` [Arginine (R), arginine], the “Zeta potential (mV)” value in data set [1] is −4 mV. For the same compound, in data set [2], the “Collagen type 1 synthesis ability” value was −12.58. The Cell activity ability in the data set with human fibroblasts is recorded as −12.79. In addition, in data set [3], the “Hyaluronic acid synthesis ability” value was −2.1. For the same compound, the “NO production suppression ability” value in data set [4] is 30.3.

In the case of `NC(=O)CC[C@H](N)C(=O)O` [Glutamine (Q), glutamine], the “Collagen type 1 synthesis ability” value in data set [2] was 2.78. Also, the Cell activity ability in the data set with human fibroblasts is on record as −11.66. Also, the “Hyaluronic acid synthesis ability” value in data set [3] is recorded as 2.8. Also, in data set [4], the “NO production suppression ability” value is given as 20.4. The ZO-1 expression ability in data set [5] was 11.0.

`CC1=C(/C=C/C(C)=C/C=C/C(C)=C/C(=O)O)C(C)(C)CCC1` [Retinoic acid]: in data set [3], the “Hyaluronic acid synthesis ability” value is given as 16.8.

Take TGF-b: the “Collagen type 1 synthesis ability” value in data set [2] stood at 21.15.

“chondroitin sulfate [Chondroitin sulfate (CS)]”: in data set [1], the “Zeta potential (mV)” value is −18 mV. In addition, the “Collagen type 1 synthesis ability” value in data set [2] amounted to 3.55. The compound also displayed a Cell activity ability with human fibroblasts of 8.74. For the same compound, the “Hyaluronic acid synthesis ability” value in data set [3] worked out at 1.8. Moreover, in data set [4], the “NO production suppression ability” value was found to be 25.6. In data set [5], this compound displayed a ZO-1 expression ability of 25.0. In addition, in data set [6], the “S. epidermidis growth rate (%)” value came out at 6.081%.
